Experimental data from patent publication US20240376056A1, “PHENYL ACETAMIDE BASED IL-17A MODULATORS AND USES THEREOF” (DiCE Alpha, Inc., priority 2021, published 2024).
pIC50: −log10 of the molar value. Structures can show the parent of a compound that is named as a salt.

biological target: T1, IL-17A/A (Homo sapiens, UniProt Q16552); assay: HEK-Blue IL-17A/A inhibition assay (SEAP reporter); assay type: cell-based; details: HEK-Blue cells (HEK 293 expressing IL-17RA, IL-17RC, Act1); IL-17A/A stimulation; 20 hours; SEAP read at A630; 4-parameter fit
T1 construct: purchased Genscript Z03228
T1 sequence (Q16552 24-155): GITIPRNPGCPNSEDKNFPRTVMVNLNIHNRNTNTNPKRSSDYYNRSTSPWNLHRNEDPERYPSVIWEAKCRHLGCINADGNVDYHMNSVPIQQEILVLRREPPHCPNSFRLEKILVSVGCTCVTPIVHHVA
How it was run: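 IC50 from a 4-parameter fit of SEAP signal (Quanti-Blue, A630) after 20 h co-incubation of compound and IL-17A/A. Reporter line: HEK 293 expressing IL-17RA, IL-17RC and Act1 with NFκB-SEAP; compound top final 10, 1 or 0.3 uM, DMSO 0.1% final.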

| SMILES | pIC50 |
| --- | --- |
| C[C@H](C(=O)NCC(F)(F)F)c1ccc(NC(=O)[C@@H](NC(=O)c2ccnn2CCN2CC(F)(F)C2)C(C2CC2)C2CC2)c(F)c1 [Compound 94, N-((S)-1.1-dicyclopropyl-3-((2-fluoro-4-((S)-1-oxo-1-((2,2,2-trifluoroethyl)amino)propan-2-yl)phenyl)amino)-3-oxopropan-2-yl)-1-(2-(3,3-difluoroazetidin-1-yl)ethyl)-1H-pyrazole-5-carboxamide] | 6.00 to 7.00 |
| C[C@H](C(=O)NCC(F)(F)F)c1ccc(NC(=O)[C@@H](NC(=O)c2ccnn2CCn2ccnc2)C(C2CC2)C2CC2)c(F)c1 [Compound 95, -(2-(1H-imidazol-1-yl)ethyl)-N-((S)-1,1-dicyclopropyl-3-((2-fluoro-4-((S)-1-oxo-1-((2,2,2-trifluoroethyl)amino)propan-2-yl)phenyl)amino)-3-oxopropan-2-yl)-1H-pyrazole-5-carboxamide] | 6.00 to 7.00 |
| CC(C)n1nccc1C(=O)N[C@H](C(=O)Nc1ccc([C@H](C)C(=O)NCC(F)(F)CN)cc1F)C(C1CC1)C1CC1 [Compound 100, N-((S)-1-((4-((S)-1-((3-amino-2,2-difluoropropyl)amino)-1-oxopropan-2-yl)-2-fluorophenyl)amino)-3,3-dicyclopropyl-1-oxopropan-2-yl)-1-isopropyl-1H-pyrazole-5-carboxamide] | < 6.00 |
| CC(C)n1nccc1C(=O)N[C@H](C(=O)Nc1ccc([C@H](C)C(=O)N2CCNCC2C(F)(F)F)cc1F)C(C1CC1)C1CC1 (stereo partly drawn) [Compound 101, N-((2S)-1,1-dicyclopropyl-3-((2-fluoro-4-((2S)-1-oxo-1-(2-(trifluoromethyl)piperazin-1-yl)propan-2-yl)phenyl)amino)-3-oxopropan-2-yl)-1-isopropyl-1 H-pyrazole-5-carboxamide] | < 6.00 |
| C[C@H](C(=O)N(C)CC(F)(F)F)c1ccc(NC(=O)[C@@H](Nc2nccn3nccc23)C(C2CC2)C2CC2)c(F)c1 [Compound 106, (S)-3,3-dicyclopropyl-N-(2-fluoro-4-((S)-1-(methyl(2,2,2-trifluoroethyl)amino)-1-oxopropan-2-yl)phenyl)-2-(pyrazolo[1,5-a]pyrazin-4-ylamino)propenamide] | < 6.00 |
| CC(C)n1nccc1C(=O)N[C@H](C(=O)Nc1ccc(C(C)(C)C(=O)NCC(F)(F)F)cc1F)C(C1CC1)C1CC1 [Compound 107, (S)-N-(1.1-dicyclopropyl-3-((2-fluoro-4-(2-methyl-1-oxo-1-((2,2,2-trifluoroethyl)amino)propan-2-yl)phenyl)amino)-3-oxopropan-2-yl)-1-isopropyl-1H-pyrazole-5-carboxamide] | 6.00 to 7.00 |
| CCc1cc(NC(=O)[C@@H](NC(=O)c2ccnn2C(C)C)C(C2CC2)C2CC2)c(F)cc1[C@H](C)C(=O)NCC(F)(F)F [Compound 111, N-((S)-1,1-dicyclopropyl-3-((5-ethyl-2-fluoro-4-((S)-1-oxo-1-((2,2,2-trifluoroethyl)amino)propan-2-yl)phenyl)amino)-3-oxopropan-2-yl)-1-isopropyl-1H-pyrazole-5-carboxamide] | > 7.00 |
| CCc1cc(NC(=O)[C@@H](NC(=O)c2ccnn2C(C)C)C(C2CC2)C2CC2)c(F)cc1[C@@H](C)C(=O)NCC(F)(F)F [Compound 112, N-((S)-1,1-dicyclopropyl-3-((5-ethyl-2-fluoro-4-((R)-1-oxo-1-((2,2,2-trifluoroethyl)amino)propan-2-yl)phenyl)amino)-3-oxopropan-2-yl)-1-isopropyl-1H-pyrazole-5-carboxamide] | 6.00 to 7.00 |
| CCCNC(=O)Cc1ccc(NC(=O)[C@@H](NC(=O)c2ccnn2CC)C2CCCCCC2)c(F)c1 [Compound 114, (S)-N-(1-cycloheptyl-2-((2-fluoro-4-(2-oxo-2-(propylamino)ethyl)phenyl)amino)-2-oxoethyl)-1-ethyl-1H-pyrazole-5-carboxamide] | < 6.00 |
| CC(C(=O)NCC(F)(F)F)c1cc(F)c(NC(=O)[C@@H](NC(=O)c2ccnn2C(C)C)C(C2CC2)C2CC2)cc1CN (stereo partly drawn) [Compound 119, N-((2S)-1-((5-(aminomethyl)-2-fluoro-4-(1-oxo-1-((2,2,2-trifluoroethyl)amino)propan-2-yl)phenyl)amino)-3,3-dicyclopropyl-1-oxopropan-2-yl)-1-isopropyl-1H-pyrazole-5-carboxamide] | 6.00 to 7.00 |
| CC(C)n1nccc1C(=O)N[C@H](C(=O)Nc1ccc([C@H](C)C(=O)N2CCC(N)C2)cc1F)C(C1CC1)C1CC1 (stereo partly drawn) [Compound 132, N-((2S)-1-((4-((2S)-1-(3-aminopyrrolidin-1-yl)-1-oxopropan-2-yl)-2-fluorophenyl)amino)-3,3-dicyclopropyl-1-oxopropan-2-yl)-1-isopropyl-1H-pyrazole-5-carboxamide] | < 6.00 |
| CC1CN(C(=O)[C@@H](C)c2ccc(NC(=O)[C@@H](NC(=O)c3ccnn3C(C)C)C(C3CC3)C3CC3)c(F)c2)C(C(F)(F)F)CO1 (stereo partly drawn) [Compound 135, N-((2S)-1,1-dicyclopropyl-3-((2-fluoro-4-((2S)-1-(2-methyl-5-(trifluoromethyl)morpholino)-1-oxopropan-2-yl)phenyl)amino)-3-oxopropan-2-yl)-1-isopropyl-1H-pyrazole-5-carboxamide] | 6.00 to 7.00 |
| CC(=O)NC1CCN(C(=O)[C@@H](C)c2ccc(NC(=O)[C@@H](NC(=O)c3ccnn3C(C)C)C(C3CC3)C3CC3)c(F)c2)C1 (stereo partly drawn) [Compound 136, N-((2S)-1-((4-((2S)-1-(3-acetamidopyrrolidin-1-yl)-1-oxopropan-2-yl)-2-fluorophenyl)amino)-3,3-dicyclopropyl-1-oxopropan-2-yl)-1-isopropyl-1H-pyrazole-5-carboxamide] | < 6.00 |
| CC(C)n1nccc1C(=O)N[C@H](C(=O)Nc1ccc([C@H](C)C(=O)N(CCN)CC(F)(F)F)cc1F)C(C1CC1)C1CC1 [Compound 139, N-((S)-1-((4-((S)-1-((2-aminoethyl)(2,2,2-trifluoroethyl)amino)-1-oxopropan-2-yl)-2-fluorophenyl)amino)-3,3-dicyclopropyl-1-oxopropan-2-yl)-1-isopropyl-1H-pyrazole-5-carboxamide] | 6.00 to 7.00 |
| CC(C)n1nccc1C(=O)N[C@H](C(=O)Nc1ccc([C@H](C)C(=O)N(CC(F)(F)F)C2CCOC2)cc1F)C(C1CC1)C1CC1 (stereo partly drawn) [Compound 153] | 6.00 to 7.00 |
| CC(C)n1nccc1C(=O)N[C@H](C(=O)Nc1ccc([C@H](C)C(=O)NC(CNC(=O)OC(C)(C)C)C(F)(F)F)cc1F)C(C1CC1)C1CC1 (stereo partly drawn) [Compound 154] | 6.00 to 7.00 |
| CC(C)n1nccc1C(=O)N[C@H](C(=O)Nc1ccc([C@H](C)C(=O)N[C@H](CO)C2CCC2)cc1F)C(C1CC1)C1CC1 [Compound 155] | < 6.00 |
| CC(C)n1nccc1C(=O)N[C@H](C(=O)Nc1ccc([C@H](C)C(=O)N[C@@H](CO)C2CCC2)cc1F)C(C1CC1)C1CC1 [Compound 156] | 6.00 to 7.00 |
| CC(C)n1nccc1C(=O)N[C@H](C(=O)Nc1ccc([C@H](C)C(=O)NC(CN)C(F)(F)F)cc1F)C(C1CC1)C1CC1 (stereo partly drawn) [Compound 157, N-((2S)-1-((4-((2S)-1-((3-amino-1,1,1-trifluoropropan-2-yl)amino)-1-oxopropan-2-yl)-2-fluorophenyl)amino)-3.3-dicyclopropyl-1-oxopropan-2-yl)-1-isopropyl-1H-pyrazole-5-carboxamide hydrochloride] | 6.00 to 7.00 |
| CC(C(=O)NCC(F)(F)F)c1cc(F)c(NC(=O)[C@@H](NC(=O)c2ccnn2C(C)C)C(C2CC2)C2CC2)cc1N1CCCC1 (stereo partly drawn) [Compound 160, N-((2S)-1,1-dicyclopropyl-3-((2-fluoro-4-(1-oxo-1-((2,2,2-trifluoroethyl)amino)propan-2-yl)-5-(pyrrolidin-1-yl)phenyl)ammno)-3-oxopropan-2-yl)-1-isopropyl-1H-pyrazole-5-carboxamide] | > 7.00 |
| CC(C)n1nccc1C(=O)N[C@H](C(=O)Nc1cc(CN(C)C)c([C@H](C)C(=O)NCC(F)(F)F)cc1F)C(C1CC1)C1CC1 [Compound 165, N-((S)-1,1-dicyclopropyl-3-((5-((dimethylamino)methyl)-2-fluoro-4-((S)-1-oxo-1-((2,2,2-trifluoroethyl)amino)propan-2-yl)phenyl)amino)-3-oxopropan-2-yl)-1-isopropyl-1H-pyrazole-5-carboxamide] | 6.00 to 7.00 |
| CC(C)n1nccc1C(=O)N[C@H](C(=O)Nc1cc(CCN(C)C)c([C@H](C)C(=O)NCC(F)(F)F)cc1F)C(C1CC1)C1CC1 [Compound 166, N-((S)-1,1-dicyclopropyl-3-((5-(2-(dimethylamino)ethyl)-2-fluoro-4-((S)-1-oxo-1-((2,2,2-trifluoroethyl)amino)propan-2-yl)phenyl)amino)-3-oxopropan-2-yl)-1-isopropyl-1H-pyrazole-5-carboxamide] | 6.00 to 7.00 |
| CC(C)n1nccc1C(=O)N[C@H](C(=O)Nc1ccc(C(CO)C(=O)NCC(F)(F)F)cc1F)C(C1CC1)C1CC1 (stereo partly drawn) [Compound 168, N-((2S)-1.1-dicyclopropyl-3-((2-fluoro-4-(3-hydroay-1-oxo-11-((2,2,2-trifluoroethyl)amino)propan-2-yl)phenyl)amino)-3-oxopropan-2-yl)-1-isopropyl-1H-pyrazole-5-carboxamide] | 6.00 to 7.00 |
| CC(C(=O)NCC(F)(F)F)c1cc(F)c(NC(=O)[C@@H](NC(=O)c2ccnn2C(C)C)C(C2CC2)C2CC2)cc1C(F)(F)F (stereo partly drawn) [Compound 169] | > 7.00 |
| CCn1nccc1C(=O)N[C@H](C(=O)Nc1cc(OC)c(C(C)C(=O)N(C)CC(F)(F)F)cc1F)C(C1CC1)C1CC1 (stereo partly drawn) [Compound 174] | > 7.00 |
| CCC(c1ccc(F)cc1)[C@H](NC(=O)c1ccnn1C(C)C)C(=O)Nc1cc(OC)c(C(C)C(=O)NCC(F)(F)F)cc1F (stereo partly drawn) [Compound 175] | 6.00 to 7.00 |
| COc1cc(NC(=O)[C@@H](NC(=O)c2ccnn2C(C)C)C(C2CC2)C2CC2)c(F)cc1C(C)C(=O)N(C)CC(F)(F)F (stereo partly drawn) [Compound 176] | > 7.00 |
